Reference: article PMC4760274, “Elongation factor 2 kinase promotes cell survival by inhibiting protein synthesis without inducing autophagy” (Cellular Signalling, 2016)
Peptide text beside a SMILES is read from it. * marks the point of attachment. Cbz = O=C(OCc1ccccc1)*

Tests used:
P-eEF2 in A549 cells = assay: eEF2 phosphorylation in A549 cells (western blot); format: cell-based, human; details: for phosphorylation of eEF2: 16 h, 2DG 10 mM, rapamycin 100 nM, AZD8055 1 μM, MG132 10 μM, Fig. 2A
Protocol: (§1) After treatment, cells were lysed in ice-cold lysis buffer containing 1% (v/v) Triton X-100 (215680010, Acros Organics), 50 mM Tris (T6066-1KG, Sigma-Aldrich)–HCl (258148-2.5 L, Sigma-Aldrich) pH 7.4, 50 mM NaCl (BP358-212, Fisher Scientific), 0.2 mM EDTA (BP120-500, Fisher Scientific), 0.2 mM EGTA (E1102, Melford), 50 mM β-glycerophosphate (G9422, Sigma-Aldrich), 1 mM Na3VO4 (S6508, Sigma-Aldrich), 15 mM β-mercaptoethanol (125472500, Acros Organics) and 1 × protease inhibitor cocktail (5056489001, Roche). Lysates were spun at 16,000 × g for 10 min at 4 °C; the supernatants were kept and total protein concentration was quantified by Bradford assay following the manufacturer's instructions.
(§2) These procedures were performed as described previously.
Cells were then treated with 10 mM 2-deoxyglucose (2DG), rapamycin (100 nM), AZD8055 (1 μM) or MG132 (10 μM) for 16 h. Cells were then lysed and samples containing equal amounts of protein were analysed by western blot using the indicated antibodies. Values given below each lane show quantitation of the signal for LC3II, corrected for the actin signal from multiple experiments as in (A) expressed as LC3II normalized to actin, mean ± SEM (control cells without treatment = 1; n = 3). (B) A549 cells were cultured as in (A) to induce eEF2K knockdown. A549 cells were transiently transfected with the GST-BHMT construct and maintained in full media in the presence or absence of AZD8055 (1 μM) for 16 h, in the presence of leupeptin and E64d. GST-BHMT was precipitated with glutathione agarose from the whole cell extracts (bottom panel). Values given below show the quantitation of data from multiple experiments as in (B) expressed as the level of BHMT fragment normalized to the control without IPTG, mean ± SEM (control cells without treatment = 1; n = 3). Values given below each lane show quantitation of the signal for P-eEF2, corrected for the eEF2 signal from multiple experiments as in (B) expressed as P-eEF2 normalized to eEF2, mean ± SEM (control cells without treatment = 1; n = 3). (C) Cells were treated as described in Supplemental Fig. S3, visualized by confocal microscopy and the rate of autophagosome–lysosome fusion was measured according to green/red fluorescence ratio which reflect the percentage of unfused LC3. Scale bar = 20 μm. (D) Data quantification of C, data are presented as means ± SEM. (n = 5) ***P < 0.001, obtained by two-way ANOVA (Dunnett's test). (E) Untransfected A549 cells were treated with AZD8055 and BafA1 as described in A, cell lysates were collected at T0, 1 and 3 h for immunoblotting analysis. Values given below each lane show quantitation of the signal for LC3II, corrected for the LC3I signal from multiple experiments as in (E) expressed as LC3II normalized to LC3I, mean ± SEM (control cells without treatment = 1; n = 3).

P-eEF2 in WT MEFs = assay: eEF2 phosphorylation in wild-type MEFs (western blot); format: cell-based, mouse; details: MK2206 5 μM or 2DG 10 mM, 24 h, Fig. 3A
Protocol: as §1, with “instructions. […]” for “instructions.”
Fig. 3 Role of eEF2K in autophagy in mouse embryonic fibroblasts (MEFs). […] Cells were then lysed and samples containing equal amounts of protein were analysed by western blot using the indicated antibodies. (B) Quantitation of data from multiple experiments as in (A) expressed as LC3II normalized to actin, mean ± SEM (control cells without treatment = 1; n = 3). […] Cells were then lysed and samples containing equal amounts of protein were analysed by western blot using the indicated antibodies. (D) Quantitation of data from multiple experiments as in (C) expressed as LC3II normalized to actin, mean ± SEM (control cells without treatment = 1; n = 3).

LC3II in MEFs = assay: LC3 modification in MEFs (western blot); format: cell-based, mouse; details: 24 h; for ratio of the two forms of LC3: WT MEFs, MK2206 5 μM or 2DG 10 mM, Fig. 3A
Protocol: as §1, §2
Fig. 3 Role of eEF2K in autophagy in mouse embryonic fibroblasts (MEFs). Wildtype (WT) and eEF2K^−/− (KO) MEFs were treated, where indicated, with MK2206 (MK) (5 μM) or 10 mM 2-deoxyglucose (2DG) or in medium lacking glucose (− Glc) for 24 h. Cells were then lysed and samples containing equal amounts of protein were analysed by western blot using the indicated antibodies. (B) Quantitation of data from multiple experiments as in (A) expressed as LC3II normalized to actin, mean ± SEM (control cells without treatment = 1; n = 3). (C) Wild-type (WT) and eEF2K^−/− (KO) MEFs were treated, where indicated, with rapamycin (50 nM) or AZD8055 (0.5 μM) and/or chloroquine (10 μM) for 24 h. Cells were then lysed and samples containing equal amounts of protein were analysed by western blot using the indicated antibodies. (D) Quantitation of data from multiple experiments as in (C) expressed as LC3II normalized to actin, mean ± SEM (control cells without treatment = 1; n = 3).

HCT116 cells = assay: cell death markers in HCT116 cells (PARP cleavage, caspase 3/7 activity); format: cell-based, human; details: CHX 5 μg/mL or Harringtonine 2 μg/mL, Fig. 1B, C
Protocol: (§3) Caspase 3/7 assays (G8090, Promega) were performed according to the manufacturer's instructions. Briefly, 10,000 cells/well were plated overnight in a 96-well plate. Cells were treated as described in the figure legends for the indicated time period. To measure caspase 3/7 activity, 50 μL of caspase Glo 3/7 reagent was added to each well for 2 h with constant shaking at room temperature. Luminescence was measured using a BMG Labtech FLUOstar Optimi plate reader. Cytotoxicity was evaluated by CellTox Green® cytotoxicity assay (Promega). Briefly, 10,000 cells/well were plated overnight in a 96-well plate. Cells were treated as described in the figure legends for the indicated time period. Fluorescence was measured at 485–500 nmEx/520–530 nmEm using a BMG Labtech FLUOstar Optimi plate reader.
(§4) Fig. 1 eEF2K helps cells withstand glucose starvation. […] Cells were then lysed and samples containing equal amounts of protein were analysed by western blot using the indicated antibodies. Values given below each lane show quantitation of the signal for P-eEF2, corrected for the eEF2 signal from multiple experiments as in (A) expressed as P-eEF2 normalized to eEF2, mean ± SEM (control cells without treatment = 1; n = 3). […] Cells were lysed and caspase 3/7 activity was determined. […] Cell death was measured using CellTox Green® assay. […]

P-eEF2 in HCT116 cells = assay: eEF2 phosphorylation in HCT116 cells (western blot); format: cell-based, human; details: 24 h, CHX 5 μg/mL or Harringtonine 2 μg/mL, Fig. 1C
Protocol: as §1, §2, §4

A549 cells = assay: cell death of A549 cells (CellTox Green assay); format: cell-based, human; details: CHX 5 μg/mL
Protocol: as §3, §4

[1] = tested on: eEF2K levels in A549 cells; assay: eEF2K protein levels in A549 cells (western blot); format: cell-based, human; details: CHX 5 μg/mL, 24 h, Fig. 1E
Protocol: as §1, §2, §4

[2] = tested on: mTORC1 signalling in HCT116 cells; assay: mTORC1 signalling in HCT116 cells (western blot); format: cell-based, human; details: 24 h, Harringtonine 2 μg/mL, Fig. 1C
Protocol: as §1, §2, §4

[3] = tested on: GST-BHMT cleavage (autophagic flux) in A549 cells; assay: GST-BHMT cleavage assay in A549 cells; format: cell-based, human; details: chloroquine, data not shown
LC3II in A549 cells = assay: LC3 modification in A549 cells (western blot); format: cell-based, human; details: A549 with or without eEF2K knockdown; chloroquine 10 μM; 16 h; Fig. S1
Protocol: as §1, §2
Cells were then treated with 10 mM 2-deoxyglucose (2DG), rapamycin (100 nM), AZD8055 (1 μM) or MG132 (10 μM) for 16 h. Cells were then lysed and samples containing equal amounts of protein were analysed by western blot using the indicated antibodies. Values given below each lane show quantitation of the signal for LC3II, corrected for the actin signal from multiple experiments as in (A) expressed as LC3II normalized to actin, mean ± SEM (control cells without treatment = 1; n = 3). (B) A549 cells were cultured as in (A) to induce eEF2K knockdown. […] (D) Data quantification of C, data are presented as means ± SEM. […]

Structure (SMILES) | phosphorylation of eEF2 (P-eEF2 in A549 cells) | level of phosphorylation of eEF2 (P-eEF2 in WT MEFs) | ratio of the two forms of LC3 (LC3II in MEFs) | cell survival in cells starved of glucose and treated with eEF2K inhibitor JAN-849 (HCT116 cells) | effect on eEF2 phosphorylation (p-eEF2) (P-eEF2 in HCT116 cells) | other results
O=CC[C@@H](O)[C@H](O)[C@H](O)CO [2-DG, 2-deoxyglucose] | induced the phosphorylation of eEF2 | increased the level of phosphorylation of eEF2 | shift in the ratio of the two forms of LC3 from the upper (LC3I) to the lower band | – | – | –
C[C@@H]1C[C@@H]([C@H](O)CC2CC(=O)NC(=O)C2)C(=O)[C@@H](C)C1 [CHX, cycloheximide] | – | – | – | restored cell survival | modest decrease | eEF2 phosphorylation (P-eEF2 in A549 cells; CHX 5 μg/mL, 24 h, Fig. 1E): decrease in eEF2 phosphorylation; effect on cell survival under control conditions (A549 cells; A549): adverse effect; death induced by glucose starvation (A549 cells; A549 with eEF2K knockdown, 48 h, Fig. 1D): partially rescued; levels of eEF2K [1]: decreased the levels of eEF2K
COC(=O)C[C@](O)(CCC(C)(C)O)C(=O)O[C@@H]1C(OC)=C[C@]23CCCN2CCc2cc4c(cc2[C@H]13)OCO4 [Harringtonine] | – | – | – | restored cell survival | no effect | effect on mTORC1 signalling [2]: very little
CC(C)C[C@@H](C=O)NC(=O)[C@H](CC(C)C)NC(=O)[C@H](CC(C)C)NC(=O)OCc1ccccc1 [MG132] (Cbz-Leu-Leu-Leu-aldehyde) | induced the phosphorylation of eEF2 | – | – | – | – | –
NC1(c2ccc(-c3nc4ccn5c(=O)[nH]nc5c4cc3-c3ccccc3)cc2)CCC1 [MK2206] | – | increased the level of phosphorylation of eEF2 | shift in the ratio of the two forms of LC3 from the upper (LC3I) to the lower band | – | – | –
CCN(CC)CCCC(C)Nc1ccnc2cc(Cl)ccc12 (stereo not drawn) [chloroquine] | – | – | – | – | – | cleavage of GST-BHMT [3]: completely blocked; levels of modified LC3-II (LC3II in MEFs; MEFs treated with rapamycin (50 nM) or AZD8055 (0.5 μM), chloroquine 10 μM, Fig. 3C): increased the levels of modified LC3-II; modified LC3 (LC3II in A549 cells): increased modified LC3
